In patent publication US20250090516A1, “DRUG FOR TREATING AF[…] NOVEL CORONAVIRUS INFECTION” (THE JIKEI UNIVERSITY, priority 2022, published 2025):

Legend:
Assay type in all cases: in vivo, C57BL/6 mice
[1] = test system: gene expression of zinc finger protein 36 (Zfp36) in the brains of S1 mice; test: RT-qPCR of Zfp36 in brains of S1 mice after PNU282987; conditions: PNU282987 400 nmol/mouse intracerebroventricularly; cDNA of Example 10; FIG. 15
Experimental: Therefore, to the S1 mice and the control mice, on the 7th day after nasal administration of S1/Adv or vector/Adv, PNU282987, which is an agonist specific to the a7 nicotinic acetylcholine receptor, was administered intracerebroventricularly at a dose of 400 nmol/mouse, and the therapeutic effect on brain inflammation in the S1 mice was examined.
One hour after the intracerebroventricular administration of PNU282987, the brains excluding the olfactory bulbs were collected, and RNA was purified with the RNeasy Mini Kit (QIAGEN). The purified RNA was used as a template to synthesize cDNA with the PrimeScript RT reagent Kit (Takara-Bio Inc.). Using the synthesized cDNA, the gene expression of interleukin-1β (IL-1β) and interleukin-6 (IL-6) was analyzed by RT-qPCR. The measurement results of 18S rRNA were used for normalization.
To elucidate the molecular mechanism of the therapeutic effect of PNU282987 on brain inflammation in Example 10, the impact of S1 and […] on the gene expression level of zinc finger protein 36 (Zfp36), which is a host protein with anti-inflammatory effects, was examined. Specifically, using the synthesized cDNA in Example 10, the gene expression of Zfp36 was analyzed by RT-qPCR. The measurement results of 18S rRNA were used for normalization.

[2] = test system: gene expression of IL-1β and IL-6 in the brains of S1 mice; test: RT-qPCR of inflammatory cytokine genes in brains of S1 mice after intracerebroventricular PNU282987; conditions: PNU282987 400 nmol/mouse intracerebroventricularly on 7th day; brains collected one hour later; FIG. 14
[3] = test system: S1 mice (COVID-19 sequela model animals); test: 10% weight-loaded forced swimming test (fatigue behavioral test) after donepezil; conditions: donepezil 4.0 mg/kg/day via drinking water; 6th day after nasal S1/Adv; without donepezil, S1 mice significantly shorter; FIG. 11
[4] = test system: S1 mice (COVID-19 sequela model animals); test: Tail suspension test (depressive disorder-like behavior) after donepezil; conditions: donepezil 4.0 mg/kg/day via drinking water; 6th day after nasal S1/Adv; 10 minutes suspension; without donepezil, S1 mice significantly increased; FIG. 12

Structure (SMILES)	decrease in ZFP36 gene expression in S1 mice [1]	increased expression level of IL-1β gene in the brain of S1 mice [2]	increased expression level of IL-6 gene in the brain of S1 mice [2]	swimming time, S1 mice vs control mice [3]	immobility time in the tail suspension test, S1 mice vs control mice [4]
O=C(N[C@H]1CN2CCC1CC2)c1ccc(Cl)cc1 [PNU282987]	improved	suppressed	suppressed	–	–
COc1cc2c(cc1OC)C(=O)C(CC1CCN(Cc3ccccc3)CC1)C2.Cl (centres unmarked) [donepezil, 2-[(1-benzyl-4-piperidyl)methyl]-5,6-dimethoxyindan-1-one hydrochloride]	–	–	–	no difference was observed	significantly decreased
